# Source: PubChem BioAssay (NCI)
#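 Following 48 hours of exposure in 96-well plates, responses at five concentrations were used to interpolate endpoints linearly. The concentration for 50% growth inhibition is given as GI50. TGI marks complete inhibition of growth.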
# Experiments:
# Test in all cases: NCI anticancer screen, dose series, 48 h
# [1] = system: 786-0 renal
# [2] = system: A498 renal
# [3] = system: A549 NSCLC
# [4] = system: ACHN renal
# [5] = system: BT-549 breast
# [6] = system: CAKI-1 renal
# [7] = system: CCRF-CEM leukemia
# [8] = system: COLO 205 colon
# [9] = system: DU-145 prostate
# [10] = system: EKVX NSCLC
# [11] = system: HCC-2998 colon
# [12] = system: HCT-116 colon
# [13] = system: HCT-15 colon
# [14] = system: HL-60(TB) leukemia
# [15] = system: HOP-62 NSCLC
# [16] = system: HOP-92 NSCLC
# [17] = system: HS 578T breast
# [18] = system: HT29 colon
# [19] = system: IGROV1 ovarian
# [20] = system: K-562 leukemia
# [21] = system: KM12 colon
# [22] = system: M14 melanoma
# [23] = system: MALME-3M melanoma
# [24] = system: MCF7 breast
# [25] = system: MDA-MB-231 breast
# [26] = system: MDA-MB-435
# [27] = system: MDA-MB-468 breast
# [28] = system: MOLT-4 leukemia
# [29] = system: NCI-H226 lung
# [30] = system: NCI-H23 lung
# [31] = system: NCI-H460 lung
# [32] = system: NCI-H522 lung
# [33] = system: OVCAR-3 ovarian
# [34] = system: OVCAR-4 ovarian
# [35] = system: OVCAR-5 ovarian
# [36] = system: OVCAR-8 ovarian
# [37] = system: PC-3 prostate
# [38] = system: RPMI-8226 leukemia
# [39] = system: RXF 393 renal
# [40] = system: SF-268 CNS
# [41] = system: SF-295 CNS
# [42] = system: SF-539 CNS
# [43] = system: SK-MEL-2 melanoma
# [44] = system: SK-MEL-28 melanoma
# [45] = system: SK-MEL-5 melanoma
# [46] = system: SK-OV-3 ovarian
# [47] = system: SN12C renal
# [48] = system: SNB-19 CNS
# [49] = system: SNB-75 CNS
# [50] = system: SR leukemia
# [51] = system: SW-620 colon
# [52] = system: T-47D breast
# [53] = system: TK-10 renal
# [54] = system: U251 CNS
# [55] = system: UACC-257 melanoma
# [56] = system: UACC-62 melanoma
# [57] = system: UO-31 renal
structure (smiles),measurement,setting,value
O=c1nc(-c2ccccc2)cc(-c2cc3ccccc3nc2Cl)[nH]1,GI50,[1],3.39 µM
same,TGI,[1],13.3 µM
same,GI50,[2],21.2 µM
same,TGI,[2],43.5 µM
same,GI50,[3],11.6 µM
same,TGI,[3],80.3 µM
same,GI50,[4],5.59 µM
same,TGI,[4],18.2 µM
same,GI50,[5],2.61 µM
same,TGI,[5],13.3 µM
same,GI50,[6],10.1 µM
same,TGI,[6],23 µM
same,GI50,[7],2.75 µM
same,TGI,[7],9.32 µM
same,GI50,[8],8.33 µM
same,TGI,[8],25.4 µM
same,GI50,[9],7.23 µM
same,TGI,[9],20.3 µM
same,GI50,[10],14.5 µM
same,TGI,[10],36.8 µM
same,GI50,[11],16.9 µM
same,TGI,[11],33.7 µM
same,GI50,[12],1.89 µM
same,TGI,[12],3.9 µM
same,GI50,[13],2.12 µM
same,TGI,[13],5.22 µM
same,GI50,[14],2.27 µM
same,TGI,[14],6.67 µM
same,GI50,[15],5.23 µM
same,TGI,[15],20.6 µM
same,GI50,[16],4.21 µM
same,TGI,[16],22.4 µM
same,GI50,[17],12.3 µM
same,TGI,[17],60.2 µM
same,GI50,[18],6.62 µM
same,TGI,[18],24.8 µM
same,GI50,[19],12.8 µM
same,TGI,[19],27.9 µM
same,GI50,[20],2.71 µM
same,TGI,[20],9.19 µM
same,GI50,[21],1.96 µM
same,TGI,[21],4.39 µM
same,GI50,[22],12 µM
same,TGI,[22],31.6 µM
same,GI50,[23],12.4 µM
same,TGI,[23],26.4 µM
same,GI50,[24],2.53 µM
same,TGI,[24],14.8 µM
same,GI50,[25],6.12 µM
same,TGI,[25],19.3 µM
same,GI50,[26],6.96 µM
same,TGI,[26],22.3 µM
same,GI50,[27],4.24 µM
same,TGI,[27],19.5 µM
same,GI50,[28],3.07 µM
same,TGI,[28],12.4 µM
same,GI50,[29],11.2 µM
same,TGI,[29],28.1 µM
same,GI50,[30],10.7 µM
same,TGI,[30],39.6 µM
same,GI50,[31],3 µM
same,TGI,[31],10.3 µM
same,GI50,[32],8.4 µM
same,TGI,[32],22.3 µM
same,GI50,[33],3.38 µM
same,TGI,[33],12.8 µM
same,GI50,[34],17.8 µM
same,TGI,[34],61.4 µM
same,GI50,[35],12.2 µM
same,TGI,[35],25.3 µM
same,GI50,[36],3.71 µM
same,TGI,[36],18.6 µM
same,GI50,[37],6.11 µM
same,TGI,[37],26.4 µM
same,GI50,[38],2.2 µM
same,TGI,[38],7.19 µM
same,GI50,[39],11.1 µM
same,TGI,[39],25.1 µM
same,GI50,[40],4.97 µM
same,TGI,[40],18.6 µM
same,GI50,[41],10.1 µM
same,TGI,[41],24.1 µM
same,GI50,[42],2.05 µM
same,TGI,[42],5.1 µM
same,GI50,[43],17.1 µM
same,TGI,[43],34 µM
same,GI50,[44],11.1 µM
same,TGI,[44],23.3 µM
same,GI50,[45],17.6 µM
same,TGI,[45],33.4 µM
same,GI50,[46],21.7 µM
same,TGI,[46],> 100 µM
same,GI50,[47],11.2 µM
same,TGI,[47],23.9 µM
same,GI50,[48],3.92 µM
same,TGI,[48],15.8 µM
same,GI50,[49],3.82 µM
same,TGI,[49],20.6 µM
same,GI50,[50],0.549 µM
same,TGI,[50],4.86 µM
same,GI50,[51],1.93 µM
same,TGI,[51],3.91 µM
same,GI50,[52],21.4 µM
same,TGI,[52],> 100 µM
same,GI50,[53],16.4 µM
same,TGI,[53],41.5 µM
same,GI50,[54],1.62 µM
same,TGI,[54],4.25 µM
same,GI50,[55],17 µM
same,TGI,[55],36.9 µM
same,GI50,[56],7.98 µM
same,TGI,[56],20.9 µM
same,GI50,[57],3.98 µM
same,TGI,[57],18 µM
